Data published in patent US9206156B2, “Substituted indole derivatives” (GRÜNENTHAL GMBH, priority 2008, dated 2015).

Key:
[1] = molecular target: T1, ORL1 receptor (Homo sapiens, UniProt P41146); assay: ORL1 receptor binding assay with 3H-nociceptin/orphanin FQ (WGA-SPA beads); settings: c=1 μM test substance; 0.5 nM 3H-nociceptin/orphanin FQ; membranes of recombinant CHO-ORL1 cells
T1 construct: expressed in transfected cells; host or cells: CHO (recombinant CHO-ORL1 cells), membranes
Method in brief: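 Affinity given as nanomolar Ki or as % inhibition at c=1 μM. Membranes of CHO cells expressing recombinant ORL1 (20 μg protein) were incubated one hour at room temperature with 0.5 nM 3H-nociceptin/orphanin FQ in Hepes 50 mM, pH 7.4, plus MgCl2 and EDTA; bound ligand detected by SPA bead scintillation counting.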

[2] = molecular target: T2, human μ-opiate receptor (Homo sapiens, UniProt P35372); assay: μ-opiate receptor binding assay with [3H] naloxone (WGA-SPA beads); settings: 1 μmol/l test substance, 1 nmol/l [3H] naloxone, CHO-K1 cell membranes expressing human μ-opiate receptor
T2 construct: purchased NEN, Zaventem, Belgium RB-HOM; host or cells: CHO-K1 cells (membrane preparation)
Method in brief: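 Scintillation proximity readout: [3H]naloxone (1 nmol/l) displacement measured after 90 min, room temperature, on human μ-receptor CHO-K1 membranes in Tris-HCl/azide/BSA buffer; 25 μmol/l naloxone defined non-specific binding. Values are % specific-binding inhibition at 1 μmol/l, or Ki from IC50 (Cheng-Prusoff).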

T1 sequence (P41146 whole entry): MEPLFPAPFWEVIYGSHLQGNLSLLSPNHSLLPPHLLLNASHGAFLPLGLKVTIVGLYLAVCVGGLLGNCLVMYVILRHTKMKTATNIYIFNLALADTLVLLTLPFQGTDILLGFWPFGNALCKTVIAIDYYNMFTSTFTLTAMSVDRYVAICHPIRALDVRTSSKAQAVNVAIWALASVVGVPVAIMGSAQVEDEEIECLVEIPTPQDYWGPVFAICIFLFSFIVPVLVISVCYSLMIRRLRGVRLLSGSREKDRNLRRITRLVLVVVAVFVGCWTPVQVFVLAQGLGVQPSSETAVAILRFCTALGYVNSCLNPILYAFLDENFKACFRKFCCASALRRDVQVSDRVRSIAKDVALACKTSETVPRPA
T2 sequence (P35372 whole entry): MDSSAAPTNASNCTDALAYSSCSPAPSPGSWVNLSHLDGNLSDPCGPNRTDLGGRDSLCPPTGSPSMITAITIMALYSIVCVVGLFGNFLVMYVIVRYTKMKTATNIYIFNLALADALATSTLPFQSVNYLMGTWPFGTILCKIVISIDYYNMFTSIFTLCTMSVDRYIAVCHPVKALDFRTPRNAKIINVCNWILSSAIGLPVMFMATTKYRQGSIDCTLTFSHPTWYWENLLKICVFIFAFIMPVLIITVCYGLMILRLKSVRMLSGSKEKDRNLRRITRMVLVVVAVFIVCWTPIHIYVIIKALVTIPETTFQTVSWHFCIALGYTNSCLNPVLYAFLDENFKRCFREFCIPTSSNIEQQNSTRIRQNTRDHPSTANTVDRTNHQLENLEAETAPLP

Row | Structure (SMILES) | % Inhibition (ORL1) at 1 μM [1] [%] | % Inhibition (μ) at 1 μM ([2]; 1 µM) [%] | inhibition at 1 µM [1] [%] | inhibition at 1 µM [2] [%] | % Inhibition (μ) at 1 μM [2] [%]
1 | CN(CCN1CCC(c2ccccc2)(N(C)C)CC1)Cc1c[nH]c2ccccc12 [Example 187, 1-(2-(((1H-indol-3-yl)methyl)(methy)amino)ethyl)-N,N-dimethyl-4-phenylpiperidin-4-amine] | 87 | 100 | – | – | –
2 | CC(C)c1ccc2c(CNCCN3CCC(c4cccs4)(N(C)C)CC3)c[nH]c2c1 [Example 74, 1-(2-((6-Isopropyl-1H-indol-3-yl)methylamino)ethyl)-N,N-dimethyl-4-(thiophen-2-yl)pipendin-4-amine] | – | – | 97 | 99 | –
3 | CN(CCCN1CCC(c2cccs2)(N(C)C)CC1)C(=O)c1ccc2ccn(C)c2c1 [Example 28, N-(3-(4-(Dimethylamino)-4-(thiophen-2-yl)piperidin-1-yl)propyl)-N,1-dimethyl-1H-indole-6-carboxamide] | – | – | 36 | 88 | –
4 | COc1ccc2c(c1)c(CN(C)CCN1CCC(c3ccccc3)(N(C)C)CC1)c(C)n2Cc1ccccc1 [Example 77, 1-(2-(((1-Benzyl-5-methoxy-2-methyl-1H-indol-3-yl)methyl)(methyl)amino)ethyl)-N,N-dimethyl-4-phenylpiperidin-4-amine] | 60 | 89 | – | – | –
5 | CC(C)C(CC(=O)N(C)CCN1CCC(c2ccccc2)(N(C)C)CC1)c1c[nH]c2ccccc12 (stereo not shown) [Example 24, N-(2-(4-(Dimethylamino)-4-phenylpiperidin-1-yl)ethyl)-3-(1H-indol-3-yl)-N,4-dimethylpentanamide] | – | – | 84 | 97 | –
6 | CN(CCN1CCC(c2ccccc2)(N(C)C)CC1)Cc1ccc2[nH]ccc2c1 [Example 68, 1-(2-(((1H-Indol-5-yl)methyl)(methyl)amino)ethyl)-N,N-dimethyl-4-phenylpiperidin-4-amine] | – | – | 65 | 93 | –
7 | CN(CCN1CCC(c2ccccc2)(N(C)C)CC1)C(=O)C1CCCc2c1[nH]c1ccc(Cl)cc21 (stereo not shown) [Example 25, 6-Chloro-N-(2-(4-(dimethylamino)-4-phenylpiperidin-1-yl)ethyl)-N-methyl-2,3,4,9-tetrahydro-1H-carbazole-1-carboxamide] | 62 | 86 | – | – | –
8 | COc1ccc2[nH]c(C(=O)N(C)CCCN3CCC(c4ccccc4)(N(C)C)CC3)cc2c1 [Example 66, N-(3-(4-(Dimethylamino)-4-phenylpiperidin-1-yl)propyl)-5-methoxy-N-methyl-1H-indole-2-carboxamide] | – | – | 33 | 71 | –
9 | CN(C)C1(c2ccccc2)CCN(C(=O)CCNC(=O)c2cccc3c2ccn3C)CC1 [Example 121, N-(3-(4-(dimethylamino)-4-phenylpiperidin-1-yl)-3-oxopropyl)-1-methyl-1H-indole-4-carboxamide] | – | – | 44 | 88 | –
10 | CN(CCCN1CCC(c2ccccc2)(N(C)C)CC1)C(=O)Cc1c[nH]c2cc(F)ccc12 [Example 45, N-(3-(4-(Dimethylamino)-4-phenylpiperidin-1-yl)propyl)-2-(6-fluoro-1H-indol-3-yl)-N-methylacetamide] | – | – | 49 | 82 | –
11 | CN(CCN1CCC(c2ccccc2)(N(C)C)CC1)C(=O)c1ccc2ccn(C)c2c1 [Example 29, N-(2-(4-(Dimethylamino)-4-phenylpiperidin-1-yl)ethyl)-N,1-dimethyl-1H-indole-6-carboxamide] | 51 | 94 | – | – | –
12 | CN(C)C1(c2cccs2)CCN(C(=O)CC(NC(=O)c2cccc3c2ccn3C)c2ccccc2)CC1 (stereo not shown) [Example 108, N-(3-(4-(dimethylamino)-4-(thiophen-2-yl)piperidin-1-yl)-3-oxo-1-phenylpropyl)-1-methyl-1H-indole-4-carboxamide] | – | – | 63 | 98 | –
13 | CCCCC1(N(C)C)CCN(CCN(C)C(=O)CCc2c[nH]c3ccccc23)CC1 [Example 60, N-(2-(4-Butyl-4-(dimethylamino)piperidin-1-yl)ethyl)-3-(1H-indol-3-yl)-N-methylpropanamide] | – | – | 45 | 81 | –
14 | CC(C)C(CC(=O)NCCN1CCC(c2cccs2)(N(C)C)CC1)c1c[nH]c2ccccc12 (stereo not shown) [Example 2, N-(2-(4-(Dimethylamino)-4-(thiophen-2-yl)piperidin-1-yl)ethyl)-3-(1H-indol-3-yl)-4-methylpentanamide] | – | – | 96 | 99 | –
15 | CN(C)C1(c2cccs2)CCN(CCNC(=O)Cc2c[nH]c3cc(F)ccc23)CC1 [Example 8, N-(2-(4-(Dimethylamino)-4-(thiophen-2-yl)piperidin-1-yl)ethyl)-2-(6-fluoro-1H-indol-3-yl)acetamide] | – | – | 96 | 99 | –
16 | CN(CCN1CCC(c2ccccc2)(N2CCCC2)CC1)Cc1ccc2cc[nH]c2c1 [Example 143, N-((1H-indol-6-yl)methyl)-N-methyl-2-(4-phenyl-4-(pyrrolidin-1-yl)piperidin-1-yl)ethanamine] | – | – | 13 | 71 | –
17 | CN(C)C1(c2cccs2)CCN(C(=O)CNC(=O)c2ccc3ccn(C)c3c2)CC1 [Example 109, N-(2-(4-(dimethylamino)-4-(thiophen-2-yl)piperidin-1-yl)-2-oxoethyl)-1-methyl-1H-indole-6-carboxamide] | – | – | 61 | 81 | –
18 | CN(C)C1(c2cccs2)CCN(C(=O)CNCc2cccc3cc[nH]c23)CC1 [Example 172, 2-((1H-indol-7-yl)methylamino)-1-(4-(dimethylamino)-4-(thiophen-2-yl)piperidin-1-yl)ethanone] | – | – | 67 | 96 | –
19 | CN(C)C1(c2cccs2)CCN(C(=O)CC(NC(=O)c2ccc3ccn(C)c3c2)c2ccccc2)CC1 (stereo not shown) [Example 101, N-(3-(4-(dimethylamino)-4-(thiophen-2-yl)piperidin-1-yl)-3-oxo-1-phenylpropyl)-1-methyl-1H-indole-6-carboxamide] | – | – | 68 | 96 | –
20 | CN(C)C1(c2cccs2)CCN(CCNCc2c[nH]c3ccc(Cl)cc23)CC1 [Example 72, 1-(2-((5-Chloro-1H-indol-3-yl)methylamino)ethyl)-N,N-dimethyl-4-(thiophen-2-yl)piperidin-4-amine] | 95 | 101 | – | – | –
21 | CN(CCCN1CCC(c2cccs2)(N(C)C)CC1)C(=O)c1cccc2c1ccn2C [Example 30, N-(3-(4-(Dimethylamino)-4-(thiophen-2-yl)piperidin-1-yl)propyl)-N,1-dimethyl-1H-indole-4-carboxamide] | – | – | 21 | 78 | –
22 | CCCCC1(N(C)C)CCN(CCN(C)Cc2cccc3cc[nH]c23)CC1 [Example 157, 1-(2-(((1H-indol-7-yl)methyl)(methy)amino)ethyl)-4-butyl-N,N-dimethylpiperidin-4-amine] | 30 | – | – | – | 96
23 | CC(C)c1ccc2c(CN(C)CCCN3CCC(c4cccs4)(N(C)C)CC3)c[nH]c2c1 [Example 67, 1-(3-(((6-Isopropyl-1H-indol-3-yl)methyl)(methyl)amino)propyl)-N,N-dimethyl-4-(thiophen-2-yl)piperidin-4-amine] | – | – | 90 | 93 | –
24 | CN(C)C1(c2cccs2)CCN(C(=O)CC(NC(=O)Cc2c[nH]c3cc(F)ccc23)c2ccccc2)CC1 (stereo not shown) [Example 93, N-(3-(4-(dimethylamino)-4-(thiophen-2-yl)piperidin-1-yl)-3-oxo-1-phenylpropyl)-2-(6-fluoro-1H-indol-3-yl)acetamide] | – | – | 88 | 97 | –
25 | CC(C)c1ccc2c(CN(C)CCN3CCC(c4ccccc4)(N(C)C)CC3)c[nH]c2c1 [Example 180, 1-(2-(((6-isopropyl-1H-indol-3-yl)methyl)(methyl)amino)ethyl)-N,N-dimethyl-4-phenylpiperidin-4-amine] | – | – | 96 | 95 | –
26 | CN(CCCN1CCC(c2cccs2)(N(C)C)CC1)C(=O)c1c[nH]c2ccccc12 [Example 11, N-(3-(4-(Dimethylamino)-4-(thiophen-2-yl)piperidin-1-yl)propyl)-N-methyl-1H-indole-3-carboxamide] | – | – | 80 | 86 | –
27 | Cc1c(CN(C)CCN2CCC(c3ccccc3)(N(C)C)CC2)c2ccccc2n1C [Example 79, 1-(2-(((1,2-Dimethyl-1H-indol-3-yl)methyl)(methyl)amino)ethyl)-N,N-dimethyl-4-phenylpiperidin-4-amine] | 83 | 101 | – | – | –
28 | CN(C)C1(c2ccccc2)CCN(C(=O)C2CCCN(C(=O)c3ccc4cc[nH]c4c3)C2)CC1 (stereo not shown) [Example 125, (1-(1H-indole-6-carbonyl)piperidin-3-yl)(4-(dimethylamino)-4-phenylpiperidin-1-yl)methanone] | – | – | 42 | 55 | –
29 | CN(CCN1CCC(c2ccccc2)(N(C)C)CC1)Cc1ccc2cc[nH]c2c1 [Example 184, 1-(2-(((1H-indol-6-yl)methyl)(methy)amino)ethyl)-N,N-dimethyl-4-phenylpiperidin-4-amine] | 95 | 99 | – | – | –
